{"source": "patent US20250144054A1", "about": "“SMALL MOLECULE STAT3 INHIBITOR FOR TREATING TRIPLE NEGATIVE BREAST CANCER” (UNIVERSITY OF MARYLAND, BALTIMORE, priority 2022, published 2025)", "key": {"SUM149 xenograft": {"tested_on": "SUM149 xenograft", "experiment": "SUM149 xenograft model in vivo", "description": "Next, the efficacy of LLL12B and Talazoparib was examined in the SUM149 xenograft model in vivo. […] V: Vehicle; L: LLL12B; T: Talazoparib. Western blot analysis further confirmed the inhibition of p-STAT3 in LLL12B and combination treated tumors (FIG. 16D)."}, "MDA-MB-231 cells [1]": {"tested_on": "MDA-MB-231 cells", "experiment": "Wound healing assay, MDA-MB-231 cells", "type": "cell-based, human", "conditions": "MDA-MB-231, vs DMSO", "procedure": "Wound healing assay. MDA-MB-231, SUM159, and 4T1 cells were seeded in a 6-well plate and cultured until fully confluent. A straight scratch crossing the monolayer was created using a 200 μl pipette tip and images of scratched areas were taken. Next, cells were treated with DMSO or LLL12B. Then, images were taken until the scratch of DMSO-treated cells was closed and the relative migration (%) was calculated.\nGiven the relevance between cancer cell migration and metastasis, cell migration was evaluated using wound healing assay following LLL12B and Talazoparib treatment.\nIn FIG. 12, L: LLL12B; T: Talazoparib; L0.5:0.5 μM LLL12B; L0.25:0.25 μM LLL12B; T0.5:0.5 μM Talazoparib; T10: 10 μM Talazoparib. In FIG. 13, L: LLL12B; T: Talazoparib; L0.5:0.5μ M LLL12B; T10: 10μ M Talazoparib; T20: 20μ M Talazoparib. In FIG. 14, L: LLL12B; T: Talazoparib; L0.5:0.5μ M LLL12B; T10: 10μ M Talazoparib; T20: 20μ M Talazoparib.\nL: LLL12B; A: Abemaciclib; L0.5:0.5 μM LLL12B; A2.5:2.5 μM Abemaciclib; A1: 1 μM Abemaciclib"}, "4T1 cells": {"tested_on": "4T1 cells", "experiment": "Colony formation assay, 4T1 cells", "type": "cell-based, murine", "conditions": "4T1, 24 hours treatment, 7 days drug-free, vs DMSO", "procedure": "(§1) Colony formation assay. MDA-MB-231, SUM159, and 4T1 cells were seeded in a 6-well plate at a density of 1000 cells/well and treated with DMSO or LLL12B for 24 hours, and then cultured in a drug-free culture medium for 7 days. Colonies were fixed with methanol for 30 min and stained with 1% crystal violet in 25% methanol for 2 hours at room temperature."}, "caspase-3/7": {"tested_on": "caspase-3/7", "experiment": "Caspase-3/7 activity assay, MDA-MB-231 cells", "type": "cell-based, human", "conditions": "MDA-MB-231, 5 hours, vs DMSO", "procedure": "Caspase-3/7 activity assay. The Caspase-3/7 Fluorescence Assay Kit (Cayman, Ann Arbor, MI, USA) was used to detect the activation of caspase-3/7 and the assay was performed according to the manufacturer's instructions. Briefly, MDA-MB-231, SUM159, and 4T1 cells were seeded in a 96-well plate in triplicate. After overnight incubation, cells were treated with either LLL12B or DMSO for 5 hours. Cells were lysed and processed to measure caspase-3/7 activity and the fluorescence intensity was read (excitation=485 nm; emission=535 nm)."}, "SUM159 cells [2]": {"tested_on": "SUM159 cells", "experiment": "Colony formation assay, SUM159 cells", "type": "cell-based, human", "conditions": "SUM159, 24 hours treatment, 7 days drug-free, vs DMSO", "procedure": "as §1"}, "STAT3 [3]": {"tested_on": "STAT3", "conditions": "human medulloblastoma cells, refs [25,31]; cited from earlier work"}, "ovarian cancer cells": {"tested_on": "ovarian cancer cells", "conditions": "ref [45]; cited from earlier work"}, "PANC-1 cells": {"tested_on": "PANC-1 cells", "experiment": "MTT cell viability assay, PANC-1 cells", "type": "cell-based, human", "conditions": "PANC-1, 3 days", "procedure": "The human pancreatic cancer cell lines HPAC and PANC-1 were seeded and allowed to attach for 24 hours. Then cells were treated with different concentrations of LLL12B for 3 days and the cell viability was determined by MTT cell viability assay."}, "ERK": {"tested_on": "ERK", "experiment": "EGF induced ERK phosphorylation, Western blot, T47D cells", "type": "cell-based, human", "conditions": "pretreated 2 hours, 50 ng/ml EGF 30 minutes", "procedure": "(§2) (A) The chemical structures of LLL12B and LLL12. The carbamate ester bond of LLL12B is hydrolytically cleaved by the tumor-associated plasmin to release LLL12. (B) SUM159 cells were seeded in a 6-well plate and treated with LLL12B for 8 hours. Cells were stained with Phospho-Stat3 (Tyr705) and DAPI (indicated by arrows). Green: P-STAT3 (Y705); Blue: DAPI. T47D (C) and MDA-MB-231 (D) breast cancer cells were pretreated with DMSO or LLL12B in a serum-free medium for 2 hours and stimulated with 50 ng/ml of IL-6, IFN-γ, or EGF for additional 30 minutes. Cells were collected and analyzed by Western blot. GAPDH served as a protein loading control.\n(§3) Western blot. Cells were collected and total protein was extracted using cell lysis buffer (Cell Signaling Technology, Danvers, MA, USA). Protein concentration was determined using the Pierce BCA Protein Assay Kit (Thermo Fisher Scientific, Waltham, MA, USA) according to the manufacturer's instructions. Equal amounts of protein were separated by 10% SDS-PAGE gels and transferred to PVDF membranes. Membranes were blocked in 5% non-fat milk at room temperature and probed with specific antibodies P-STAT3 (Y705), STAT3, Cyclin D1, Cleaved Caspase-3, P-STAT1 (Y701), STAT1, P-ERK, ERK or GAPDH (1:1000, Cell Signaling Technology, Danvers, MA, USA) at 4° C. overnight. […]"}, "SUM159 cells [4]": {"tested_on": "SUM159 cells", "experiment": "Annexin V and PI flow cytometry, SUM159 cells", "type": "cell-based, human", "conditions": "SUM159, 8-12 hours, vs DMSO", "procedure": "(§4) Flow cytometry analysis. Flow cytometry was performed to detect cell apoptosis. The APC Annexin V Apoptosis Detection Kit (Biolegend, San Diego, CA, USA) was used for Annexin V staining. Cells were seeded in a 35 mm culture dish at a density of 1×10^5 cells/dish. After overnight incubation, cells were treated with DMSO or LLL12B for 8-12 hours. Cells were harvested and stained with Annexin V-APC and propidium iodide (PI) according to the manufacturer's instructions. After staining, cells were counted using a FACSCanto II flow cytometer (BD Biosciences, San Jose, CA, USA)."}, "STAT3 [5]": {"tested_on": "STAT3", "experiment": "IL-6 induced STAT3 phosphorylation, Western blot, T47D cells", "type": "cell-based, human", "conditions": "pretreated 2 hours serum-free, 50 ng/ml IL-6 30 minutes", "procedure": "as §2, §3"}, "MDA-MB-231 cells [6]": {"tested_on": "MDA-MB-231 cells", "experiment": "Annexin V and PI flow cytometry, MDA-MB-231 cells", "type": "cell-based, human", "conditions": "MDA-MB-231, 8-12 hours, vs DMSO", "procedure": "as §4"}, "[7]": {"conditions": "refs [25,28]; cited from earlier work"}}, "data": [{"smiles": "CN(C)C(=O)Oc1cccc2c1C(=O)c1cccc(S(N)(=O)=O)c1C2=O", "note": "[LLL12B]", "values": [{"measurement": "p-STAT3 in tumors, Western blot", "setting": "SUM149 xenograft", "value": "inhibition"}, {"measurement": "wound closure (cell migration)", "setting": "MDA-MB-231 cells [1]", "value": "effectively inhibited"}, {"measurement": "colony numbers", "setting": "4T1 cells", "value": "significant reduction"}, {"measurement": "activation of caspase-3/7", "setting": "caspase-3/7", "value": "induced the activation"}, {"measurement": "colony numbers", "setting": "SUM159 cells [2]", "value": "significant reduction"}, {"measurement": "IL-6 induced STAT3 phosphorylation", "setting": "STAT3 [3]", "value": "inhibited"}, {"measurement": "sensitization to paclitaxel and cisplatin", "setting": "ovarian cancer cells", "value": "sensitized"}, {"measurement": "cell viability", "setting": "PANC-1 cells", "value": "significantly inhibits"}, {"measurement": "induction of P-ERK stimulated by EGF", "setting": "ERK", "value": "did not inhibit"}, {"measurement": "percentage of apoptotic cells", "setting": "SUM159 cells [4]", "value": "significantly increased"}, {"measurement": "IL-6 induced phosphorylation of STAT3 (Y705)", "setting": "STAT3 [5]", "value": "inhibited"}, {"measurement": "percentage of apoptotic cells", "setting": "MDA-MB-231 cells [6]", "value": "significantly increased"}, {"measurement": "in vivo pharmacokinetic properties compared to LLL12", "setting": "[7]", "value": "superior"}]}]}
